Results published in patent US20230065953A1, “NOVEL HETEROARYL-TRIAZOLE COMPOUNDS AS PESTICIDES” (Bayer Aktiengesellschaft, priority 2019, published 2023).

What was measured:
Type in all cases: in vivo
[1] = system: Rhipicephalus microplus larvae (strain Parkhurst, resistant against synthetic pyrethroids); assay: Rhipicephalus (Boophilus) microplus in-vitro contact test, larval cattle tick; details: 5 μg/cm^2 (=500 g/ha), after 48 hours, read-out: efficacy (larvae dead or moribund)
Method in brief: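 Larvae exposed by contact to a dried acetone film on glass; a 900 ppm solution yields 5 μg/cm^2. Scoring after 48 h at 27° C. counts dead plus moribund larvae as efficacy.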

[2] = system: adult engorged female ticks (Rhipicephalus microplus); assay: Rhipicephalus (Boophilus) microplus injection test; details: 168 h, 4 μg/animal, egg deposition after 7 days, read-out: efficacy (infertile eggs)
Description: Rhipicephalus (Boophilus) Microplus—Injection Test
(§1) Solvent: dimethyl sulfoxide
To produce a suitable preparation of active compound, 10 mg of active compound are dissolved in 0.5 mL solvent, and the concentrate is diluted with solvent to the desired concentration.
Five adult engorged female ticks (Rhipicephalus microplus) are injected with 1 μL compound solution into the abdomen. The ticks are transferred into replica plates and incubated in a climate chamber.
After 7 days egg deposition of fertile eggs is monitored. Eggs where fertility is not visible are stored in a climate chamber till hatching after about 42 days. An efficacy of 100% means all eggs are infertile; 0% means all eggs are fertile.

[3] = system: adult unfed cat fleas (Ctenocephalides felis); assay: Ctenocephalides felis oral test; details: 48 h
Description: Ctenocephalides felis—Oral Test
as §1
To produce a suitable preparation of active compound, 10 mg of active compound are dissolved in 0.5 mL solvent, and the concentrate is diluted with cattle blood to the desired concentration.
Approximately 20 adult unfed cat fleas (Ctenocephalides felis) are placed in flea chambers. The blood chamber, sealed with parafilm on the bottom, are filled with cattle blood supplied with compound solution and placed on the gauze covered top of the flea chamber, so that the fleas are able to suck the blood. The blood chamber is heated to 37° C. whereas the flea chamber is kept at room temperature.
After 2 days mortality in % is determined. 100% means all the fleas have been killed; 0% means none of the fleas have been killed.

[4] = system: adult brown dog ticks (Rhipicephalus sanguineus); assay: Rhipicephalus sanguineus in-vitro contact test with adult brown dog ticks; details: 5 μg/cm^2 (=500 g/ha), after 48 hours, read-out: efficacy (ticks dead or moribund)
Description: Rhipicephalus sanguineus—In-Vitro Contact Tests with Adult Brown Dog Ticks
(§2) 9 mg compound is solved in 1 mL acetone and diluted with acetone to the desired concentration. 250 μL of the test solution is filled in 25 mL glass test tubes and homogeneously distributed on the inner walls by rotation and tilting on a shaking device (2 h at 30 rpm). With a compound concentration of 900 ppm, an inner surface of 44.7 cm^2 and a homogeneous distribution, a dose of 5 μg/cm^2 is achieved.
After the solvent has evaporated, each test tube is filled with 5-10 adult brown dog ticks (Rhipicephalus sanguineus), closed with a perforated lid and incubated in a lying position at room temperature and relative humidity. After 48 hours efficacy is determined. The ticks are patted on the ground of the tubes and are incubated on a heating plate at 45-50° C. for at most 5 minutes. Immotile or uncoordinated moving ticks, which are not able to escape the heat by climbing upwards, are marked as dead or moribund.
An efficacy of 100% means all ticks are dead or moribund; 0% means no ticks are dead or moribund.

[5] = system: green peach aphid (Myzus persicae); assay: Myzus persicae oral test; details: 120 h
Description: Myzus persicae—oral test • Solvent: 100 parts by weight acetone
To produce a suitable preparation of active compound, 1 part by weight of active compound is mixed with the stated amount of solvent, and the concentrate is diluted with water to the desired concentration. 50 μL compound solution is filled in microtiter plates and 150 μL IPL41 insect medium (33%+15% sugar) is added to obtain a total volume of 200 μL per well. Afterwards the plates are sealed with parafilm through which a mixed population of the green peach aphid (Myzus persicae) can suck on the compound preparation.
After 5 days mortality in % is determined. 100% means all aphids have been killed and 0% means none of the aphids have been killed.

[6] = system: fall armyworm larvae (Spodoptera frugiperda); assay: Spodoptera frugiperda spray test (maize leaf sections); details: 168 h
Method in brief: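 Maize leaf sections sprayed with compound in acetone/dimethylformamide, diluted in water with 1000 ppm alkylarylpolyglycol ether emulsifier. Dried sections infested with fall armyworm larvae. Mortality (%) scored after 7 days; 100% = all caterpillars killed.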

[7] = system: larvae of the banded cucumber beetle (Diabrotica balteata); assay: Diabrotica balteata spray test; details: 168 h, 100 g/ha (=32 μg/well), wheat seeds, after 7 days, read-out: efficacy (seedling growth)
Method in brief: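 Wheat seeds germinated 1 day on agar were sprayed with compound in acetone/dimethylformamide with alkylarylpolyglycol ether emulsifier, diluted in emulsifier-containing water. Each unit then received 10-20 larvae, and % efficacy was scored after 7 days.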

[8] = system: adult cat fleas (Ctenocephalides felis); assay: Ctenocephalides felis in-vitro contact test, adult cat flea; details: 5 μg/cm^2 (=500 g/ha), after 48 hours
Description: Ctenocephalides felis—In-Vitro Contact Tests Adult Cat Flea
as §2
After the solvent has evaporated, each test tube is filled with 5-10 adult cat fleas (Ctenocephalides felis), closed with a perforated lid and incubated in a lying position at room temperature and relative humidity. After 48 hours efficacy is determined. The fleas are patted on the ground of the tubes and are incubated on a heating plate at 45-50° C. for at most 5 minutes. Immotile or uncoordinated moving fleas, which are not able to escape the heat by climbing upwards, are marked as dead or moribund.
An efficacy of 100% means all fleas are dead or moribund; 0% means no fleas are dead or moribund.

[9] = system: adult mosquitoes Aedes aegypti strain MONHEIM; assay: Aedes aegypti test (AEDSAE surface treatment & contact assay); details: 24 hours after contact, read-out: efficacy (mortality); for mortality at 4 mg/m2: surface concentration 4 mg/m^2, 30 min exposure; for mortality at 20 mg/m2: surface concentration 20 mg/m^2, 30 min exposure
Description: Aedes aegypti test (AEDSAE surface treatment & contact assay) • Solvent: Aceton+2000 ppm rapeseed oil methyl ester (RME)
In order to produce a sufficient, active ingredient containing solution it is necessary to solve the test compound in the solvent-mix (acetone at 2 mg/ml/RME 2000 ppm). This solution is pipetted onto a glazed tile and after evaporation of the acetone, adult mosquitoes of the species Aedes aegypti strain MONHEIM are placed onto the dried surface. The exposure time is 30 minutes.
(§3) Mortality in percent (%) is determined 24 hours after contact of the insects to the treated surface. 100% mortality means that all tested insects are dead, whereas 0% means that no insect died.

[10] = system: adult flies Musca domestica strain WHO-N; assay: Musca domestica test (MUSCDO surface treatment & contact assay); details: 24 hours after contact, read-out: efficacy (mortality); for mortality at 20 mg/m2: surface concentration 20 mg/m^2, 30 min exposure; for mortality at 4 mg/m2: surface concentration 4 mg/m^2, 30 min exposure
Description: Musca domestica Test (MUSCDO Surface Treatment & Contact Assay) • Solvent: Aceton+2000 ppm rapeseed oil methyl ester (RME)
In order to produce a sufficient, active ingredient containing solution it is necessary to solve the test compound in the solvent-mix (acetone at 2 mg/ml/RME 2000 ppm). This solution is pipetted onto a glazed tile and after evaporation of the acetone, adult flies of the species Musca domestica strain WHO-N are placed onto the dried surface. The exposure time is 30 minutes.
as §3

[11] = system: green peach aphid (Myzus persicae); assay: Myzus persicae spray test; details: foliar, 120 h, Chinese cabbage leaf disks, after 5 days
Method in brief: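 Chinese cabbage leaf discs infested with all instars of the aphid were sprayed with compound prepared in acetone/DMF and diluted in water containing 1000 ppm emulsifier. Mortality (%) was scored after 5 days, 100% meaning all aphids killed and 0% none.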

[12] = system: larvae of the southern green stink bug (Nezara viridula); assay: Nezara viridula spray test; details: in Hordeum vulgare, 96 h
Method in brief: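 Barley plants sprayed with compound in acetone/dimethylformamide, diluted in water with 1000 ppm alkylarylpolyglycol ether emulsifier, then infested with Nezara viridula larvae. Percent mortality read after 4 days (100% = all killed, 0% = none).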

| Structure (SMILES) | pest or weed control at 5 µg/cm2 [1] [%] | pest or weed control at 0.004 mg [2] [%] | mortality at 100 ppm [3] [%] | pest or weed control at 5 µg/cm2, 500 g/ha [4] [%] | mortality at 4 ppm [5] [%] | mortality at 100 g/ha [6] [%] | pest or weed control at 32 µg/disc, 100 g/ha [7] [%] | efficacy (fleas dead or moribund) [8] [%] | mortality at 4 mg/m2 [9] [%] | mortality at 20 mg/m2 [9] [%] | mortality at 20 mg/m2 [10] [%] | mortality at 4 mg/m2 [10] [%] | mortality at 100 g/ha [11] [%] | mortality at 500 g/ha [12] [%] | mortality at 100 g/ha [12] [%] |
| --- | --- | --- | --- | --- | --- | --- | --- | --- | --- | --- | --- | --- | --- | --- | --- |
| COCCN(C)C(=O)c1cnc(-n2nc(C)nc2[C@H](C)NC(=O)c2cc(C(F)(F)F)cc(C(F)(F)F)c2)s1 [I-3] | 100 | 100 | 80 | 100 | 90 | 100 | – | – | – | – | – | – | – | – | – |
| Cc1nc([C@H](C)NC(=O)c2cc(Cl)cc(Br)c2)n(-c2ncc(C#N)s2)n1 [I-12] | 100 | 100 | 100 | 100 | – | 100 | 100 | – | – | – | – | – | – | – | – |
| Cc1nc([C@H](C)NC(=O)c2cc(Br)cc(Br)c2)n(-c2ncc(C#N)s2)n1 [I-13] | 100 | 100 | 100 | 100 | – | 83 | 100 | – | – | – | – | – | – | – | – |
| Cc1nc([C@H](C)NC(=O)c2cc(Cl)cc(C(F)(F)C(F)(F)F)c2)n(-c2ncc(C#N)s2)n1 [I-19] | 100 | 100 | 100 | 80 | – | 100 | 100 | – | – | – | – | – | – | – | – |
| Cc1nc([C@H](C)NC(=O)c2cc(Cl)nc(C(F)(F)F)c2)n(-c2ncc(C#N)s2)n1 [I-20, 2-chloro-N-{(1S)-1-[1-(5-cyano-1,3-thiazol-2-yl)-3-methyl-1H-1,2,4-triazol-5-yl]ethyl}-6-(trifluoromethyl)isonicotinamide] | 100 | 100 | 100 | 100 | – | – | 100 | – | – | – | – | – | – | – | – |
| CC(NC(=O)c1cc(C(F)F)cc(C(F)F)c1)c1ncnn1-c1ncc(C#N)s1 (stereo not shown) [I-33] | 90 | 100 | 100 | – | 100 | 100 | 100 | 80 | 80 to 100 | 80 to 100 | 80 to 100 | – | – | – | – |
| C[C@H](NC(=O)c1cc(Br)cc(OC(F)F)c1)c1ncnn1-c1ncc(C#N)s1 [I-39] | 90 | 100 | 100 | – | 100 | 100 | 100 | 80 | – | 80 to 100 | 80 to 100 | 90 to 100 | – | – | – |
| C[C@H](NC(=O)c1cc(Br)cc(C(C)(F)F)c1)c1ncnn1-c1ncc(C#N)s1 [I-47] | 90 | – | – | – | – | 100 | 100 | – | 80 to 100 | 80 to 100 | 80 to 100 | 90 to 100 | 90 | – | – |
| C[C@H](NC(=O)c1cc(Cl)cc(C2(C#N)CC2)c1)c1ncnn1-c1ncc(C#N)s1 [I-52] | – | – | – | – | – | 100 | 100 | – | – | 80 to 100 | 80 to 100 | 90 to 100 | 100 | 100 | – |
| Cc1nc([C@H](C)NC(=O)c2cc(C(F)(F)F)cc(C(F)(F)F)c2)n(-c2ncc(C#N)s2)n1 [I-90] | – | – | – | – | – | 100 | 100 | – | 80 to 100 | – | 80 to 100 | 90 to 100 | 90 | – | – |
| C[C@H](NC(=O)c1cc(Br)cc(C(C)(C)F)c1)c1ncnn1-c1ncc(C#N)s1 [I-99] | – | – | – | – | – | 100 | 100 | – | 80 to 100 | 80 to 100 | 80 to 100 | 90 to 100 | 100 | 100 | 100 |
